Results as given in publication PMC3959874 (European journal of dermatology : EJD, 2013).
Where two headings read alike, the source gives them in different places.

Experiments:
[1] = biological target: hERG potassium channel (Homo sapiens, UniProt Q12809); test: Radioligand binding assay; conditions: human
[2] = biological target: CYP3A4 (Homo sapiens, UniProt P08684); test: Cytochrome P450 enzyme assay; assay type: in vitro ADME; conditions: human
[3] = system: Purinergic P2x; test: Radioligand binding assay; design: species or system rabbit; conditions: 10 μM; 25 °C, 30 min
[4] = biological target: Serotonin (5-Hydroxytryptam ine) 5-HT1A (Homo sapiens, UniProt P08908); test: Radioligand binding assay; conditions: read-out: Percent inhibition of specific radioligand binding
Sequence of Serotonin (5-Hydroxytryptam ine) 5-HT1A (P08908 whole entry): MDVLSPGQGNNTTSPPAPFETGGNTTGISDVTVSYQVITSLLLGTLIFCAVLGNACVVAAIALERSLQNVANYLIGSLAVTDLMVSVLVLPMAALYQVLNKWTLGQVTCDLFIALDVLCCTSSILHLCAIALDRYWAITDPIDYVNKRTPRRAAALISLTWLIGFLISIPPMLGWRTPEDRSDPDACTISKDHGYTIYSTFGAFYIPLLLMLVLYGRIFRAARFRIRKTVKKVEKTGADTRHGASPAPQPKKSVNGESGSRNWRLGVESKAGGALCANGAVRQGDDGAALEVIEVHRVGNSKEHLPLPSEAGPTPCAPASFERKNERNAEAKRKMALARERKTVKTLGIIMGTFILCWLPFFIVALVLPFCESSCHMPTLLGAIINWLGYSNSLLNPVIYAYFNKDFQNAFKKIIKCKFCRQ

[5] = system: Phorbol Ester; test: Radioligand binding assay; design: species or system mouse; conditions: 10 μM; 25 °C, 60 min
[6] = system: Imidazoline I2, Central; test: Radioligand binding assay; design: species or system rat; conditions: 10 μM; 25 °C, 30 min
[7] = biological target: Transporter, Norepinephrine (NET) (Homo sapiens, UniProt P23975); test: Radioligand binding assay; conditions: read-out: Percent inhibition of specific radioligand binding
[8] = biological target: Muscarinic M2 (Homo sapiens, UniProt P08172); test: Radioligand binding assay; conditions: read-out: Percent inhibition of specific radioligand binding
[9] = biological target: Leukotriene, Cysteinyl CysLT 1 (Homo sapiens, UniProt Q9Y271); test: Radioligand binding assay; conditions: read-out: Percent inhibition of specific radioligand binding
Sequence of Leukotriene, Cysteinyl CysLT 1 (Q9Y271 whole entry): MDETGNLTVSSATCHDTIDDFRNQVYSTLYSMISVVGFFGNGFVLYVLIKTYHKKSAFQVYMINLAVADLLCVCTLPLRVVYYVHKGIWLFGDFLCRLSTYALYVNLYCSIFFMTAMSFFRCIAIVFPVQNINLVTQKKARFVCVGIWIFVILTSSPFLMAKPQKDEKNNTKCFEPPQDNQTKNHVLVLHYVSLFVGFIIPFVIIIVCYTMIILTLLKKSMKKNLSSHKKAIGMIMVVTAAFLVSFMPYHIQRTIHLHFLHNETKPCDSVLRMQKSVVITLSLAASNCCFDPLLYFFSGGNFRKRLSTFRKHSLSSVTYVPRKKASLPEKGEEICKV

[10] = biological target: Adrenergic β1 (Homo sapiens, UniProt P08588); test: Radioligand binding assay; conditions: read-out: Percent inhibition of specific radioligand binding
[11] = system: Purinergic P2,; test: Radioligand binding assay; design: species or system rat; conditions: 10 μM; 25 °C, 60 min
[12] = biological target: Glucocorticoid (Homo sapiens, UniProt P04150); test: Radioligand binding assay; conditions: read-out: Percent inhibition of specific radioligand binding
[13] = biological target: Bradykinin B1 (Homo sapiens, UniProt P46663); test: Radioligand binding assay; conditions: read-out: Percent inhibition of specific radioligand binding
[14] = biological target: Cannabinoid CB1 (Homo sapiens, UniProt P21554); test: Radioligand binding assay; conditions: read-out: Percent inhibition of specific radioligand binding
Sequence of Cannabinoid CB1 (P21554 whole entry): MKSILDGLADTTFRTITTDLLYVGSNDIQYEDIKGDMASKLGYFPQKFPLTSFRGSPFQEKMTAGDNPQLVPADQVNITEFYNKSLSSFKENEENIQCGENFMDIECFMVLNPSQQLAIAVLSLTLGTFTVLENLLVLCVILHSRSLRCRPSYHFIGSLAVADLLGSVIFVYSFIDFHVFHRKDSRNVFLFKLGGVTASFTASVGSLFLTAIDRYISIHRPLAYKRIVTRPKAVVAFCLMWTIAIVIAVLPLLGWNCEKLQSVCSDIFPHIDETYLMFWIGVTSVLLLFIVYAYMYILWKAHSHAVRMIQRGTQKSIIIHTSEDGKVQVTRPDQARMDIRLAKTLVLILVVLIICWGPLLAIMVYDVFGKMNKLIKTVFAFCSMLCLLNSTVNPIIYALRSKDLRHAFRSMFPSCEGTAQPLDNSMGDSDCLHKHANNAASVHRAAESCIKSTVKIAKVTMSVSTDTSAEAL

[15] = biological target: Nicotinic Acetylcholine a1, Bungarotoxin (Homo sapiens, UniProt P02708+P07510+Q07001); test: Radioligand binding assay; conditions: read-out: Percent inhibition of specific radioligand binding
[16] = biological target: Neuropeptide Y Y2 (Homo sapiens, UniProt P49146); test: Radioligand binding assay; conditions: read-out: Percent inhibition of specific radioligand binding
[17] = system: Calcium Channel L-Type, Benzothiazepine; test: Radioligand binding assay; design: species or system rat; conditions: 10 μM; 4 °C, 180 min
[18] = biological target: Adenosine A1 (Homo sapiens, UniProt P30542); test: Radioligand binding assay; conditions: read-out: Percent inhibition of specific radioligand binding
Sequence of Adenosine A1 (P30542 whole entry): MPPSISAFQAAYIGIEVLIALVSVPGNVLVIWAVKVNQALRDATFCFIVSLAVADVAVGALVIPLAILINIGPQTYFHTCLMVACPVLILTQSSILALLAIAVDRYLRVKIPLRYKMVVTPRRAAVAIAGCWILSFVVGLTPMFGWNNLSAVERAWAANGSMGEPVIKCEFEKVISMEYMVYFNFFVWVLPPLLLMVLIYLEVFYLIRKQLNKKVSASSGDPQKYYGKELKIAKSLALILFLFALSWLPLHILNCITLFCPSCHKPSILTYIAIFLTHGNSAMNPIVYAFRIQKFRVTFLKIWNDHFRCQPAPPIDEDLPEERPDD

[19] = biological target: Opiate 51 (OP1, DOP) (Homo sapiens, UniProt P41143); test: Radioligand binding assay; conditions: read-out: Percent inhibition of specific radioligand binding
Sequence of Opiate 51 (OP1, DOP) (P41143 whole entry): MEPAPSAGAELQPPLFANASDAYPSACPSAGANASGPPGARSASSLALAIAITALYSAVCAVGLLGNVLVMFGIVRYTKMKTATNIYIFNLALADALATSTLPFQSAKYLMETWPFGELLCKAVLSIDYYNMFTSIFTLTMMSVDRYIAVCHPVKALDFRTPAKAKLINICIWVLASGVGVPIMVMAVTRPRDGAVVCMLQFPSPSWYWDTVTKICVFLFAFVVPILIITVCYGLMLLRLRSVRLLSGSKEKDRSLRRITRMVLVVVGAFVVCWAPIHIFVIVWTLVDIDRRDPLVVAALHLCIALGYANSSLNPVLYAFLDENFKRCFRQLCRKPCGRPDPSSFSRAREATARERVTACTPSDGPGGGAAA

[20] = biological target: CYP2C19 (Homo sapiens, UniProt P33261); test: Cytochrome P450 enzyme assay; assay type: in vitro ADME; conditions: human
[21] = biological target: Serotonin (5-Hydroxytryptam ine) 5-HT2B (Homo sapiens, UniProt P41595); test: Radioligand binding assay; conditions: read-out: Percent inhibition of specific radioligand binding
[22] = biological target: Estrogen ERa (Homo sapiens, UniProt P03372); test: Radioligand binding assay; conditions: read-out: Percent inhibition of specific radioligand binding
[23] = biological target: Interleukin IL-1 (Mus musculus, UniProt P13504); test: Radioligand binding assay; conditions: read-out: Percent inhibition of specific radioligand binding
[24] = biological target: CYP2D6 (Homo sapiens, UniProt P10635); test: Cytochrome P450 enzyme assay; assay type: in vitro ADME; conditions: human
[25] = biological target: Transporter, GABA (Rattus norvegicus, UniProt P23978); test: Radioligand binding assay; conditions: read-out: Percent inhibition of specific radioligand binding
[26] = system: Glutamate, NMDA, Agonism; test: Radioligand binding assay; design: species or system rat; conditions: 10 μM; 4 °C, 20 min
[27] = system: Potassium Channel [KATP]; test: Radioligand binding assay; design: species or system human; conditions: 10 μM; 25 °C, 120 min
[28] = biological target: Dopamine D4.2 (Homo sapiens, UniProt P21917, DEL265-296); test: Radioligand binding assay; conditions: read-out: Percent inhibition of specific radioligand binding
[29] = biological target: Bradykinin B2 (Homo sapiens, UniProt P30411); test: Radioligand binding assay; conditions: read-out: Percent inhibition of specific radioligand binding
Sequence of Bradykinin B2 (P30411 whole entry): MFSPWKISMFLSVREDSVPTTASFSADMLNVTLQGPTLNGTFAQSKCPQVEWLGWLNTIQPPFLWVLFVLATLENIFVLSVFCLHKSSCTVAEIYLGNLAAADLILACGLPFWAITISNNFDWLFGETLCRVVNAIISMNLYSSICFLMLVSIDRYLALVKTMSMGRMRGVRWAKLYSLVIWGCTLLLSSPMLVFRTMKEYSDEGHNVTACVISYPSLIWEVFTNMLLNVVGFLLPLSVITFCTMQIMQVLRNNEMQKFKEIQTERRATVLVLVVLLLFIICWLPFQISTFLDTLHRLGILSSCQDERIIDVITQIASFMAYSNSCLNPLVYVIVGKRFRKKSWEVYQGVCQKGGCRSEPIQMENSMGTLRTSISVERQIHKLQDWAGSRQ

[30] = biological target: Endothelin ETB (Homo sapiens, UniProt P24530); test: Radioligand binding assay; conditions: read-out: Percent inhibition of specific radioligand binding
Sequence of Endothelin ETB (P24530 27-442): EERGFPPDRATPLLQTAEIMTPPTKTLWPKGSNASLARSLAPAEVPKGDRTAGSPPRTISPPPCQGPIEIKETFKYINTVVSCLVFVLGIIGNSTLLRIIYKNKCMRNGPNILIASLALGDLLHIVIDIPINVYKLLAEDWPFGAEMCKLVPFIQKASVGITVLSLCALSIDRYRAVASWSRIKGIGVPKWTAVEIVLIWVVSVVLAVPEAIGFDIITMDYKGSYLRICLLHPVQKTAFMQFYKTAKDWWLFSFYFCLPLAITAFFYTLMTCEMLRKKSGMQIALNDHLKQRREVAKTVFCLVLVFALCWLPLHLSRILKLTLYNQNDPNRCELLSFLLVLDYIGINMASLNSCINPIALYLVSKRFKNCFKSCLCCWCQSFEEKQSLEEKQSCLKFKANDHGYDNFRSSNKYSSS

[31] = biological target: Calcium Channel N-Type (Rattus norvegicus, UniProt Q02294); test: Radioligand binding assay; conditions: read-out: Percent inhibition of specific radioligand binding
[32] = biological target: Prostanoid EP4 (Homo sapiens, UniProt P35408); test: Radioligand binding assay; conditions: read-out: Percent inhibition of specific radioligand binding
[33] = system: human PBMC; conditions: up to 1 μM; ref [24]; cited from earlier work
[34] = system: Nicotinic Acetylcholine; test: Radioligand binding assay; design: species or system human; conditions: 10 μM; 25 °C, 60 min
[35] = assay type: in vivo, mice; conditions: for Body weight change after a single intravenous injection of the MTD: 150 mg/kg TMX-202 or 15 mg/kg IMQ i.v. (figure 4)
[36] = system: Thyroid Hormone; test: Radioligand binding assay; design: species or system rat; conditions: 10 μM; 4 °C, 18 hrs
[37] = Serum drug concentration after topical skin application; conditions: C57BL/6, mouse, serum
[38] = system: GABAA, Muscimol, Central; test: Radioligand binding assay; design: species or system rat; conditions: 10 μM; 4 °C, 10 min
[39] = system: GABAA, Flunitrazepam, Cent ral; test: Radioligand binding assay; design: species or system rat; conditions: 10 μM; 25 °C, 120 min
[40] = biological target: Glutamate, NMDA, Glycine (Rattus norvegicus, UniProt P35439); test: Radioligand binding assay; conditions: read-out: Percent inhibition of specific radioligand binding
Sequence of Glutamate, NMDA, Glycine (P35439 394-800 limits assumed): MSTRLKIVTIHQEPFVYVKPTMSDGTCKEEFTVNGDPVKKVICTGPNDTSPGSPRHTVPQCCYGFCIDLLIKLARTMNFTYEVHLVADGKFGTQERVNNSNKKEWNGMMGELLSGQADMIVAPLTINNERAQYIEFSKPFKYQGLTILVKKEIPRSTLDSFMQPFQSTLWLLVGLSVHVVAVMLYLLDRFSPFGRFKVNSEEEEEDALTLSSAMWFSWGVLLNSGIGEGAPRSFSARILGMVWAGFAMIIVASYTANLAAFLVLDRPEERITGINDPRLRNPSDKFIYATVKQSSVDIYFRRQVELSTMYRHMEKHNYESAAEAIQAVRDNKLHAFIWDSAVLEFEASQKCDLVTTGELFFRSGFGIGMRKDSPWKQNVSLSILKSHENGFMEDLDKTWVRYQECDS

[41] = system: Calcium Channel L-Type, Dihydropyridine; test: Radioligand binding assay; design: species or system rat; conditions: 10 μM; 25 °C, 90 min
[42] = system: Glutamate, Kainate; test: Radioligand binding assay; design: species or system rat; conditions: 10 μM; 4 °C, 60 min
[43] = biological target: Platelet Activating Factor (PA F) (Homo sapiens, UniProt P25105); test: Radioligand binding assay; conditions: read-out: Percent inhibition of specific radioligand binding
[44] = biological target: Epidermal Growth Factor (EG F) (Homo sapiens, UniProt P00533); test: Radioligand binding assay; conditions: read-out: Percent inhibition of specific radioligand binding
Sequence of Epidermal Growth Factor (EG F) (P00533 25-1210): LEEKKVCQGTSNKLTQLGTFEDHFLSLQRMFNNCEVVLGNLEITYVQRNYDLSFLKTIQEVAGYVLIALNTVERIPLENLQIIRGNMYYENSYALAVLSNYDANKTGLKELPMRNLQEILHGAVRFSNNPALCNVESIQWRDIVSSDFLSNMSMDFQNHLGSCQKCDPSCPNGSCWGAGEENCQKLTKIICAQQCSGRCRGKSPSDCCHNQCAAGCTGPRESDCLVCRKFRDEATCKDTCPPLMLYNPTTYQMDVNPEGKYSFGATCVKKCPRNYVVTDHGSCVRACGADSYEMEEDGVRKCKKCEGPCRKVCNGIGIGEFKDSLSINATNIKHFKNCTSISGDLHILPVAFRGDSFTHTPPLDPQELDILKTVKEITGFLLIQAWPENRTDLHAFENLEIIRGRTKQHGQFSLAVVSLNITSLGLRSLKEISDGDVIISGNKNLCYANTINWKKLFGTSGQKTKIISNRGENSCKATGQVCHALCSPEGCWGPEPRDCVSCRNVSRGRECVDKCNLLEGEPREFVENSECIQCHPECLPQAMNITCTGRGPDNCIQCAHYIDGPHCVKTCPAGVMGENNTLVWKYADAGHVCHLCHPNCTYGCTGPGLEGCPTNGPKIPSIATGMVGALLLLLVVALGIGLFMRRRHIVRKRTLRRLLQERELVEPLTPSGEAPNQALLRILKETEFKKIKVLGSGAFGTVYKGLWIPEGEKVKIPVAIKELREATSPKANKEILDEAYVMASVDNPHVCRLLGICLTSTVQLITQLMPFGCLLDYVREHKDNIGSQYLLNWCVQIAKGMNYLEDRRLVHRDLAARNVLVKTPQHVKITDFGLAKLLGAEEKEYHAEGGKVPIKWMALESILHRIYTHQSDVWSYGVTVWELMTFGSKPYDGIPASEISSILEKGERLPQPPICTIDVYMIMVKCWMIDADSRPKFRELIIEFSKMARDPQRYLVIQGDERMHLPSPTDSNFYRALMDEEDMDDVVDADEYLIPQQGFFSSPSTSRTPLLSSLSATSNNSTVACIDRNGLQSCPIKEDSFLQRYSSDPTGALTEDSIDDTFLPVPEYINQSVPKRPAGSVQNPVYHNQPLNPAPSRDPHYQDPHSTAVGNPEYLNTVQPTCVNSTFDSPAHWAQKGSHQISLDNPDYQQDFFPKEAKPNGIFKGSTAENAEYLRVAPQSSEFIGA

[45] = biological target: CYP2C9 (Homo sapiens, UniProt P11712); test: Cytochrome P450 enzyme assay; assay type: in vitro ADME; conditions: human
[46] = system: Glutamate, NMDA, Phencyclidine; test: Radioligand binding assay; design: species or system rat; conditions: 10 μM; 25 °C, 45 min
[47] = biological target: Androgen (Testosterone) AR (Rattus norvegicus, UniProt P15207); test: Radioligand binding assay; conditions: read-out: Percent inhibition of specific radioligand binding
[48] = biological target: Histamine H3 (Homo sapiens, UniProt Q9Y5N1); test: Radioligand binding assay; conditions: read-out: Percent inhibition of specific radioligand binding
Sequence of Histamine H3 (Q9Y5N1 whole entry): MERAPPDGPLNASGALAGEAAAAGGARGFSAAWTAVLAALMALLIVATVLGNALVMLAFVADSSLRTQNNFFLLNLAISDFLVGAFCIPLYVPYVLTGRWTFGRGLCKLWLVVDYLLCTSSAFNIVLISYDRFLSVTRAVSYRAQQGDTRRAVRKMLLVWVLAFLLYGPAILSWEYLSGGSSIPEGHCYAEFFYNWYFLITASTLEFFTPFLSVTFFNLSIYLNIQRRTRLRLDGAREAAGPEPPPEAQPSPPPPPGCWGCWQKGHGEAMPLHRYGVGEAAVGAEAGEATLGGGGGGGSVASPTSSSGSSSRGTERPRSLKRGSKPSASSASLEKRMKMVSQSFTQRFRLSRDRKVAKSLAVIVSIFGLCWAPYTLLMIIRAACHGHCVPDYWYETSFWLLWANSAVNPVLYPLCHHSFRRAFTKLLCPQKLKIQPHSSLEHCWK

[49] = biological target: CYP1A2 (Homo sapiens, UniProt P05177); test: Cytochrome P450 enzyme assay; assay type: in vitro ADME; conditions: human
[50] = biological target: Dopamine D1 (Homo sapiens, UniProt P21728); test: Radioligand binding assay; conditions: read-out: Percent inhibition of specific radioligand binding

Compound: CC(C)Cn1cnc2c(N)nc3ccccc3c21 [IMQ, imiquimod, reference compound]
- inhibition at 60 min, 10 µM [1]: 45%
- inhibition at 30 min, 10 µM [2]: 1%
- Percent inhibition of specific radioligand binding [3]: −7%
- inhibition at 10 µM [4]: 19%
- Percent inhibition of specific radioligand binding [5]: 21%
- Percent inhibition of specific radioligand binding [6]: 57%
- inhibition at 10 µM [7]: 30%
- inhibition at 10 µM [8]: 3%
- inhibition at 10 µM [9]: 10%
- inhibition at 10 µM [10]: 19%
- Percent inhibition of specific radioligand binding [11]: 10%
- inhibition at 10 µM [12]: -2%
- inhibition at 10 µM [13]: 4%
- inhibition at 10 µM [14]: -4%
- inhibition at 10 µM [15]: 7%
- inhibition at 10 µM [16]: 6%
- Percent inhibition of specific radioligand binding [17]: 4%
- inhibition at 10 µM [18]: 50%
- inhibition at 10 µM [19]: 5%
- inhibition at 45 min, 10 µM [20]: 10%
- inhibition at 10 µM [21]: 45%
- inhibition at 10 µM [22]: 0%
- inhibition at 10 µM [23]: 5%
- inhibition at 45 min, 10 µM [24]: 29%
- inhibition at 10 µM [25]: 2%
- Percent inhibition of specific radioligand binding [26]: 2%
- Percent inhibition of specific radioligand binding [27]: −5%
- inhibition at 10 µM [28]: 2%
- inhibition at 10 µM [29]: -1%
- inhibition at 10 µM [30]: 0%
- inhibition at 10 µM [31]: 2%
- inhibition at 10 µM [32]: 6%
- IFN-γ secretion in human PBMC [33]: does not stimulate IFN-γ secretion
- Percent inhibition of specific radioligand binding [34]: 3%
- MTD at 8 days ([35]; C57BL/6, mouse, in vivo, iv): 15 mg/kg
- MTD (molar) ([35]; C57BL/6 mice, intravenous administration): approximately 62.5 μmoles/kg
- Body weight change after a single intravenous injection of the MTD ([35]; Tlr7−/− or Myd88−/− mice): did not result in body weight changes
- Body weight change after a single intravenous injection of the MTD ([35]; WT mice): did not result in body weight changes
- Percent inhibition of specific radioligand binding [36]: −5%
- concentration at 1 h [37]: 0.139 ± 0.0612 ng/mL
- Percent inhibition of specific radioligand binding [38]: 19%
- Percent inhibition of specific radioligand binding [39]: 37%
- inhibition at 10 µM [40]: -6%
- Percent inhibition of specific radioligand binding [41]: −14%
- Percent inhibition of specific radioligand binding [42]: −8%
- inhibition at 10 µM [43]: 2%
- inhibition at 10 µM [44]: -1%
- inhibition at 45 min, 10 µM [45]: 3%
- Percent inhibition of specific radioligand binding [46]: 4%
- inhibition at 10 µM [47]: 7%
- inhibition at 10 µM [48]: 4%
- inhibition at 30 min, 10 µM [49]: 66%
- inhibition at 10 µM [50]: 66%
